These are literature values, as cited in patent publication US20260076921A1, “Transdermal Pharmaceutical Formulations for the Treatment of Multiple Sclerosis” (Pike Therapeutics Inc., priority 2020, published 2026).

Several values for one entry are separate records, joined by “and”; a condition that tells them apart may be missing. Equal values may be shown once.

The conditions of data set [1]: literature ranges.
For data set [2] the following is noted: 6.2 mg/day dose.

Take `C=C(C)[C@@H]1CCC(C)=C[C@H]1c1c(O)cc(CCCCC)cc1O` [CBD, 2-[(1R,6R)-6-isopropenyl-3-methylcyclohex-2-en-1-yl]-5-pentylbenzene-1,3-diol]: in data set [1], the Oral bioavailability was 13-19% and 5-6%. The “effect on knee-joint swelling” value in data set [2] is recorded as “very effective to reduce knee-joint swelling”.

Take `CCCCCn1cc(C(=O)c2ccc(Cl)c3ccccc23)c2ccccc21` [JWH-398]: on CB1, the Ki (usually the dissociation constant of the complex between target and ligand, obtained from inhibition or displacement) is 2.3 nM. As for `CCCCCn1cc(C(=O)c2cccc3cccc(Br)c23)c2ccccc21` [JWH-424], the Ki on CB1 is 20.9 nM.

Regarding `CCCCC/C=C\C/C=C\C/C=C\C/C=C\CCCC(=O)N[C@H](C)CO` [Methanandamide], the inhibitory constant (Ki) at CB1 is 17.9 nM.
